Results from the NIST ThermoML archive (doi:10.1021/je050031f).

Assays:
[1] = xn = mol fraction of the nth substance listed; conditions: 100.8 kPa, Liquid
[2] = refractive index (Na D-line) (dimensionless); xn = mol fraction of the nth substance listed; conditions: 100.8 kPa, Liquid, Standard Abbe refractometry

CC(C)OC(C)C [diisopropyl ether] + CCO
Conditions	mass density, 288.15 K [kg/m3]	mass density, 298.15 K [kg/m3]	mass density, 308.15 K [kg/m3]	refractive index, 288.15 K	refractive index, 298.15 K	refractive index, 308.15 K	viscosity, 288.15 K [mPa·s]	viscosity, 298.15 K [mPa·s]	viscosity, 308.15 K [mPa·s]
[1], x1 = 0.05	788.3	779.8	771	–	–	–	1.176	0.976	0.815
[1], x1 = 0.1	783.4	774.8	765.8	–	–	–	1.047	0.876	0.737
[1], x1 = 0.15	778.8	770	760.9	–	–	–	0.946	0.793	0.671
[1], x1 = 0.2	774.7	765.7	756.4	–	–	–	0.851	0.718	0.613
[1], x1 = 0.25	770.7	761.4	752	–	–	–	0.772	0.655	0.562
[1], x1 = 0.3	766.9	757.5	747.9	–	–	–	0.705	0.605	0.52
[1], x1 = 0.35	763.3	753.9	744.2	–	–	–	0.649	0.559	0.484
[1], x1 = 0.4	760	750.4	740.7	–	–	–	0.6	0.519	0.452
[1], x1 = 0.45	756.9	747.1	737.3	–	–	–	0.559	0.487	0.427
[1], x1 = 0.5	753.8	744.1	734.1	–	–	–	0.523	0.457	0.403
[1], x1 = 0.55	751	741.2	731.1	–	–	–	0.494	0.432	0.382
[1], x1 = 0.6	748.3	738.4	728.3	–	–	–	0.467	0.413	0.364
[1], x1 = 0.65	745.7	735.8	725.6	–	–	–	0.445	0.393	0.349
[1], x1 = 0.7	743.2	733.2	723	–	–	–	0.424	0.378	0.335
[1], x1 = 0.75	740.7	730.7	720.5	–	–	–	0.407	0.363	0.325
[1], x1 = 0.8	738.3	728.3	718	–	–	–	0.393	0.349	0.315
[1], x1 = 0.85	735.8	725.8	715.5	–	–	–	0.379	0.338	0.306
[1], x1 = 0.9	733.5	723.4	713.1	–	–	–	0.367	0.33	0.298
[1], x1 = 0.95	731.1	720.9	710.6	–	–	–	0.367	0.319	0.29
[1], x1 = 1	729	718.6	707.9	–	–	–	0.347	0.313	0.283
[2], x1 = 0.05	–	–	–	1.3657	1.36097	1.35649	–	–	–
[2], x1 = 0.1	–	–	–	1.36697	1.36212	1.35757	–	–	–
[2], x1 = 0.15	–	–	–	1.368	1.36316	1.35852	–	–	–
[2], x1 = 0.2	–	–	–	1.36883	1.36395	1.35926	–	–	–
[2], x1 = 0.25	–	–	–	1.36952	1.36457	1.3598	–	–	–
[2], x1 = 0.3	–	–	–	1.37013	1.36509	1.36021	–	–	–
[2], x1 = 0.35	–	–	–	1.37062	1.3655	1.36057	–	–	–
[2], x1 = 0.4	–	–	–	1.37102	1.36587	1.36083	–	–	–
[2], x1 = 0.45	–	–	–	1.37134	1.36612	1.36102	–	–	–
[2], x1 = 0.5	–	–	–	1.37158	1.36632	1.36113	–	–	–
[2], x1 = 0.55	–	–	–	1.37175	1.36644	1.36119	–	–	–
[2], x1 = 0.6	–	–	–	1.3719	1.36651	1.36118	–	–	–
[2], x1 = 0.65	–	–	–	1.37197	1.36652	1.36116	–	–	–
[2], x1 = 0.7	–	–	–	1.37196	1.36651	1.36112	–	–	–
[2], x1 = 0.75	–	–	–	1.37192	1.36645	1.36103	–	–	–
[2], x1 = 0.8	–	–	–	1.37188	1.36635	1.36089	–	–	–
[2], x1 = 0.85	–	–	–	1.37178	1.36621	1.36071	–	–	–
[2], x1 = 0.9	–	–	–	1.37162	1.36597	1.36042	–	–	–
[2], x1 = 0.95	–	–	–	1.37141	1.36566	1.36	–	–	–
[2], x1 = 1	–	–	–	1.37126	1.36537	1.35954	–	–	–
